Assay results taken from patent US10392404B2, “Compounds and compositions as kinase inhibitors” (NOVARTIS AG, priority 2014, dated 2019).
pIC50: −log10 of the molar value.

Assays:
b-Raf (V600E) = target: T1, b-Raf (V600E) (Homo sapiens, UniProt P15056, V600E); experiment: In vitro Raf activity determination (Alpha Screen, biotinylated kinase-dead MEK1 substrate), B-Raf; format: biochemical; conditions: b-Raf (V600E) approximately 4 pM; ATP 10 μM; pre-incubation 60 minutes; reaction 3 hours at room temperature
T1 construct: made in house
T1 sequence (P15056 whole entry V600E): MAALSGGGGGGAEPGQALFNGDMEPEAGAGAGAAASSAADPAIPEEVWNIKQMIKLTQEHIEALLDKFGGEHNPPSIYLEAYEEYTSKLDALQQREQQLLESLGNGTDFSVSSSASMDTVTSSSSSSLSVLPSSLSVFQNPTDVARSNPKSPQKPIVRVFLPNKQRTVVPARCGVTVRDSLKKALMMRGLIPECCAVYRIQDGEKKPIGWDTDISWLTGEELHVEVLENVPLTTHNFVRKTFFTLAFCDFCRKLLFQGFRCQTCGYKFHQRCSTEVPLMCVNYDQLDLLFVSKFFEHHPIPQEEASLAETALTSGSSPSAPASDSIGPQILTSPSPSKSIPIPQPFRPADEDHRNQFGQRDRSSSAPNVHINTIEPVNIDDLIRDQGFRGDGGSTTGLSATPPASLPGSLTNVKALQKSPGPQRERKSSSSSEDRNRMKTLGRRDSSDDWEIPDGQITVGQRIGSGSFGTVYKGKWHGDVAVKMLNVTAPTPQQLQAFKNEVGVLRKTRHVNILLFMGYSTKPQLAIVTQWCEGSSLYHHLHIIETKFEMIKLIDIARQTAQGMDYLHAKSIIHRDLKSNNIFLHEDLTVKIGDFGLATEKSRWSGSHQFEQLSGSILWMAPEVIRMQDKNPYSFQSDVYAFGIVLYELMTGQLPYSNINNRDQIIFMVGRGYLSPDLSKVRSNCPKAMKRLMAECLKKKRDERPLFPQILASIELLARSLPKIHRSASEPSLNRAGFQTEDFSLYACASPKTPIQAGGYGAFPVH
In short: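 IC50 from non-linear regression of AlphaScreen phospho-MEK signal (anti-p-MEK1/2 antibody). b-Raf(V600E), about 4 pM, phosphorylated ~10 nM biotinylated K97R MEK1 with 10 μM ATP for 3 h at room temperature after 60 min compound pre-incubation; buffer pH 7.5 Tris, 15 mM MgCl2, 1 mM DTT.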

C-RAF = target: T2, C-RAF (Homo sapiens, UniProt P04049, Y340E/Y341E); experiment: In vitro Raf activity determination (Alpha Screen, biotinylated kinase-dead MEK1 substrate), C-Raf; format: biochemical; conditions: c-Raf approximately 4 nM; ATP 1 μM; pre-incubation 60 minutes; reaction 1 hour at room temperature
T2 construct: His tag (implied by nickel chromatography) (cleaved yes); StrepII tag (cleaved yes); made in house; host or cells: Sf9 insect cells (baculovirus), CRAF and h14-3-3 zeta co-expressed; MEK1 substrate from E. coli
T2 sequence (P04049 whole entry Y340E/Y341E): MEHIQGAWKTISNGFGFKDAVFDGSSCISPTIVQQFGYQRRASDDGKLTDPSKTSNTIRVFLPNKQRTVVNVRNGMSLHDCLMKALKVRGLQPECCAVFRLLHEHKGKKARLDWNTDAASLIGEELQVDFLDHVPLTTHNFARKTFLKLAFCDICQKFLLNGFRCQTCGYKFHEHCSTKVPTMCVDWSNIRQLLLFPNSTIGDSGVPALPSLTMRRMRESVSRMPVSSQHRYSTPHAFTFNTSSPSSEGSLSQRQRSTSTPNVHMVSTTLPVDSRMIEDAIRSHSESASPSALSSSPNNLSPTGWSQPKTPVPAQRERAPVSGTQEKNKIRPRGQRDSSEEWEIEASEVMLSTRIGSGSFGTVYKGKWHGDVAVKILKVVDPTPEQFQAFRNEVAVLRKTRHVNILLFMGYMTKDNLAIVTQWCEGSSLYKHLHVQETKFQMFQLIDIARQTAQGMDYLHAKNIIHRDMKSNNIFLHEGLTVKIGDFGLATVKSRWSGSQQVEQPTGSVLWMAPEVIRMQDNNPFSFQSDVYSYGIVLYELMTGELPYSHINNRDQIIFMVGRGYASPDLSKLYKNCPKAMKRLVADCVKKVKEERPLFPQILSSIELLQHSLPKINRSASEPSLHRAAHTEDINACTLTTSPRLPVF
T2 sequence (P63104 whole entry partner): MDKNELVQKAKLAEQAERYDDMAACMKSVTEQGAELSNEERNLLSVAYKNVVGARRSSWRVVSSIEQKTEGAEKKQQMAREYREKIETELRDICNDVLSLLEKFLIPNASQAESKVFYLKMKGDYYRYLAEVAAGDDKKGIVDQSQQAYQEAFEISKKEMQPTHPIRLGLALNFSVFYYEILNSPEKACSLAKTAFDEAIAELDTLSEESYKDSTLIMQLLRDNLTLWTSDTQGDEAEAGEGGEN
In short: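 AlphaScreen read-out of MEK phosphorylation using an anti-phospho-MEK1/2 antibody after a 1 hour room-temperature reaction at 1 μM ATP. Enzyme: approximately 4 nM Sf9-expressed full-length activated C-Raf (Y340E/Y341E, with 14-3-3ζ) on approximately 10 nM biotinylated K97R MEK1, after 60 min compound preincubation. IC50 by non-linear fit.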

Row | Structure (SMILES) | pIC50 (b-Raf (V600E)) | pIC50 (C-RAF)
1 | Cc1ncc(NC(=O)c2cccc(C(F)(F)F)c2)cc1-c1cnc(N2CCS(=O)(=O)CC2)c(C#N)c1 [Example 85, N-(5′-cyano-6′-(1,1-dioxidothiomorpho-lino)-2-methyl-[3,3′-bipyridin]-5-yl)-3-(trifluoromethyl) benzamide] | 8.88 | 9.64
2 | Cc1ncc(NC(=O)c2ccnc(C(F)(F)F)c2)cc1-c1cnc(N2CCS(=O)(=O)CC2)c(C#N)c1 [Example 86, N-(5′-cyano-6′-(1,1-dioxidothiomorpho-lino)-2-methyl-[3,3′-bipyridin]-5-yl)-2-(trifluoromethyl) isonicotinamide] | 8.53 | 9.36
3 | Cc1ncc(NC(=O)c2ccnc(C(C)(C)C#N)c2)cc1-c1cnc(N2CCOC[C@@H]2C)c(C#N)c1 [Example 87, (S)-N-(5′-cyano-2-methyl-6′-(3-methylmorpholino)-[3,3′-bipyridin]-5-yl)-2-(2-cyanopropan-2-yl)isonicotinamide] | 8.52 | 8.94
4 | Cc1ncc(NC(=O)c2ccnc(C(C)(C)C#N)c2)cc1-c1cnc(N2C[C@H]3CC[C@@H](C2)O3)c(C#N)c1 [Example 88, N-(6′-((1R,5S)-8-oxa-3-azabicyclo[3,2,1]octan-3-yl)-5′-cyano-2-methyl-[3,3′-bipyridin]-5-yl)-2-(2-cyanopropan-2-yl)isonicotinamide] | 8.69 | 9.21
5 | Cc1ncc(NC(=O)c2ccnc(C(C)(C)C#N)c2)cc1-c1cnc(N2CCOC(C)(C)C2)c(C#N)c1 [Example 89, N-(5′-cyano-6′-(2,2-dimethylmorpholino)-2-methyl-[3,3′-bipyridin]-5-yl)-2-(2-cyanopropan-2-yl)isonicotinamide] | 8.47 | 8.99
6 | Cc1ncc(NC(=O)c2ccnc(C(C)(C)C#N)c2)cc1-c1cnc(N2C[C@H]3C[C@@H]2CO3)c(C#N)c1 [Example 90, N-(6′-((1R,4R)-2-oxa-5-azabicyclo[2.2.1]heptan-5-yl)-5′-cyano-2-methyl-[3,3′-bipyridin]-5-yl)-2-(2-cyanopropan-2-yl)isonicotinamide] | 8.05 | 8.68
7 | Cc1ncc(NC(=O)c2ccnc(C(C)(C)C#N)c2)cc1-c1cnc(N2[C@@H]3CC[C@H]2COC3)c(C#N)c1 [Example 91, N-(6′-((1R,5S)-3-oxa-8-azabicyclo[3.2.1]octan-8-yl)-5′-cyano-2-methyl-[3,3′-bipyridin]-5-yl)-2-(2-cyanopropan-2-yl)isonicotinamide] | 8.44 | 9.00
8 | Cc1ncc(NC(=O)c2ccnc(C(F)(F)F)c2)cc1-c1cnc(OC2COC2)c(C#N)c1 [Example 95, N-(5′-cyano-2-methyl-6′-(oxetan-3-yloxy)-[3,3′-bipyridin]-5-yl)-2-(trifluoromethyl) isonicotinamide] | 7.89 | 8.63
9 | Cc1ncc(NC(=O)c2ccnc(C(F)(F)F)c2)cc1-c1cnc(-c2ccn(C)c(=O)c2)c(C#N)c1 [Example 102, N-(5′-cyano-1″,2-dimethyl-2″-oxo-1″,2″-dihydro-[3,3′:6′,4″- terpyridin]-5-yl)-2-(trifluoromethyl) isonicotinamide] | 8.50 | 9.18
10 | Cc1ncc(NC(=O)c2ccnc(C(F)(F)F)c2)cc1-c1cnc(-c2cccnc2)c(C#N)c1 [Example 104, N-(3′-cyano-2″- methyl-[3,2′:5′,3″- terpyridin]-5″-yl)-2-(trifluoromethyl) isonicotinamide] | 8.50 | 9.23
11 | Cc1ncc(NC(=O)c2cccc(C(F)(F)F)c2)cc1-c1cnc(-c2ccncc2)c(C#N)c1 [Example 106, N-(5′-cyano-2-methyl-[3,3′:6′,4″- terpyridin]-5-yl)-3-(trifluoromethyl) benzamide] | 8.66 | 9.41
12 | Cc1ncc(NC(=O)c2ccnc(C(F)(F)F)c2)cc1-c1cnc(-c2cn(C)nc2C)c(C#N)c1 [Example 111, N-(5′-cyano-6′-(1,3-dimethyl-1H-pyrazol-4-yl)-2-methyl-[3,3′-bipyridin]-5-yl)-2-(trifluoromethyl) isonicotinamide] | 8.84 | 9.40
13 | Cc1ncc(NC(=O)c2ccnc(C(F)(F)F)c2)cc1-c1cnc(-c2c(C)nn(C)c2C)c(C#N)c1 [Example 112, N-(5′-cyano-2-methyl-6′-(1,3,5-trimethyl-1H-pyrazol-4-yl)-[3,3′-bipyridin]-5-yl)-2-(trifluoromethyl) isonicotinamide] | 7.75 | 8.45
14 | Cc1ncc(NC(=O)c2ccnc(C(C)(C)C#N)c2)cc1-c1cnc(-c2c(C)nn(C)c2C)c(C#N)c1 [Example 114, N-(5′-cyano-2-methyl-6′-(1,3,5-trimethyl-1H-pyrazol-4-yl)-[3,3′-bipyridin]-5-yl)-2-(2-cyanopropan-2-yl)isonicotinainide] | 7.49 | 8.09
15 | Cc1ccc(NC(=O)c2cccc(C(F)(F)F)c2)cc1-c1cnc(-n2ccc(=O)cc2)c(C#N)c1 [Example 118, N-(3-(3′-cyano-4-oxo-4H-[1,2′-bipyridin]-5′-yl)-4-methylphenyl)-3-(trifluoromethyl) benzamide] | 8.25 | 9.11
16 | Cc1ccc(NC(=O)c2ccnc(C(F)(F)F)c2)cc1-c1cnc(-n2ccc(=O)cc2)c(C#N)c1 [Example 119, N-(3-(3′-cyano-4-oxo-4H-[1,2′-bipyridin]-5′-yl)-4-methylphenyl)-2-(trifluoromethyl) isonicotinamide] | 7.91 | 8.78

The next lines start with the values.

Row | pIC50 (b-Raf (V600E)) | pIC50 (C-RAF) | Structure (SMILES)
17 | 7.60 | 8.29 | Cc1cn(-c2ncc(-c3cc(NC(=O)c4ccnc(C(C)(C)C#N)c4)cnc3C)cc2C#N)cn1 [Example 84, N-(5′-cyano-2-methyl-6′-(4-methyl-1H-imidazol-1-yl)-[3,3′-bipyridin]-5-yl)-2-(2-cyanopropan-2-yl)isonicotinamide]
18 | 8.16 | 8.76 | COCCOc1ncc(-c2cc(NC(=O)c3ccnc(C(F)(F)F)c3)cnc2C)cc1C#N [Example 93, N-(5′-cyano-6′-(2-methoxyethoxy)-2-methyl-[3,3′-bipyridin]-5-yl)-2-(trifluoromethyl) isonicotinamide]
19 | 7.63 | 8.22 | Cc1ncc(NC(=O)c2ccnc(C(C)(C)C#N)c2)cc1-c1cnc(OC2COC2)c(C#N)c1 [Example 94, N-(5′-cyano-2-methyl-6′-(oxetan-3-yloxy)-[3,3′-bipyridin]-5-yl)-2-(2-cyanopropan-2-yl)isonicotinamide]
20 | 7.93 | 8.45 | Cc1ncc(NC(=O)c2ccnc(C(C)(C)C#N)c2)cc1-c1cnc(OC(C)C)c(C#N)c1 [Example 96, N-(5′-cyano-6′-isopropoxy-2-methyl-[3,3′-bipyridin]-5-yl)-2-(2-cyanopropan-2-yl)isonicotinamide]
21 | 7.13 | 8.04 | Cc1ncc(NC(=O)c2ccnc(C(C)(C)C#N)c2)cc1-c1cnc(OCCO)c(C#N)c1 [Example 98, N-(5′-cyano-6′-(2-hydroxyethoxy)-2-methyl-[3,3′-bipyridin]-5-yl)-2-(2-cyanopropan-2-yl)isonicotinamide]
22 | 8.24 | 9.15 | Cc1ncc(NC(=O)c2cccc(C(F)(F)F)c2)cc1-c1cnc(OCCO)c(C#N)c1 [Example 99, N-(5′-cyano-6′-(2-hydroxyethoxy)-2-methyl-[3,3′-bipyridin]-5-yl)-3-(trifluoromethyl) benzamide]
23 | 7.65 | 8.38 | Cc1ncc(NC(=O)c2ccnc(C(C)(C)C#N)c2)cc1-c1cnc(-c2ccn(C)c(=O)c2)c(C#N)c1 [Example 103, N-(5′-cyano-1″,2-dimethyl-2″-oxo-1″,2″-dihydro-[3,3′:6′,4″- terpyridin]-5-yl)-2-(2-cyanopropan-2-yl)isonicotinamide]
24 | 7.74 | 8.56 | Cc1ncc(NC(=O)c2ccnc(C(C)(C)C#N)c2)cc1-c1cnc(-c2ccc(=O)n(C)c2)c(C#N)c1 [Example 105, N-(3′-cyano-1,2″- dimethyl-6-oxo-1,6-dihydro-[3,2′:5′,3″- terpyridin]-5″-yl)-2-(2-cyanopropan-2-yl)isonicotinamide]
25 | 8.04 | 8.67 | Cc1ncc(NC(=O)c2ccnc(C(C)(C)C#N)c2)cc1-c1cnc(-c2ccncc2)c(C#N)c1 [Example 107]
26 | 7.86 | 8.58 | Cc1ncc(NC(=O)c2ccnc(C(C)(C)C#N)c2)cc1-c1cnc(-c2cccnc2)c(C#N)c1 [Example 108, N-(3′-cyano-2″- methyl-[3,2′:5′,3″- terpyridin]-5″-yl)-2-(2-cyanopropan-2-yl)isonicotinamide]
27 | 7.70 | 8.56 | Cc1ncc(NC(=O)c2ccnc(C(C)(C)C#N)c2)cc1-c1cnc(-c2ccn(C)n2)c(C#N)c1 [Example 109, N-(5′-cyano-2-methyl-6′-(1-methyl-1H-pyrazol-3-yl)-[3,3′-bipyridin]-5-yl)-2-(2-cyanopropan-2-yl)isonicotinamide]
28 | 8.20 | 8.75 | Cc1ncc(NC(=O)c2ccnc(C(C)(C)C#N)c2)cc1-c1cnc(-c2cn(C)nc2C)c(C#N)c1 [Example 113, N-(5′-cyano-6′-(1,3-dimethyl-1H-pyrazol-4-yl)-2-methyl-[3,3′-bipyridin]-5-yl)-2-(2-cyanopropan-2-yl)isonicotinamide]
29 | 7.15 | 7.94 | Cc1ncc(NC(=O)c2ccnc(C(C)(C)C#N)c2)cc1-c1cnc(-c2ccnnc2)c(C#N)c1 [Example 115]
